For one series, the target named is streptavidin (Streptomyces avidinii, UniProt P22629). Briefly: Small molecule binding to streptavidin immobilized on EMA, Corning LID. The conditions noted are these: for signal-to-noise ratio: binding to streptavidin immobilized on EMA. How it is done: Streptavidin was immobilized on an EMA coated LID microplate by incubating the wells with a solution of 25 ug/mL of the protein in an acetate buffer (20 mM, pH 5.5) for 15 minutes. As negative controls, additional wells were blocked with ethanolamine. The binding of the small molecule fluorescein-biotin (“Fl-biotin”, 831 Da) was monitored as a function of time in the LID instrument. A 100 nM solution of Fl-biotin in PBS was introduced into each well and allowed to bind for several minutes. […] The data have been corrected for bulk index of refraction effects by subtracting out the response from the negative control well. […] This experiment was repeated in each column of the plate with similar results.

The next series deals with human serum albumin (Homo sapiens, UniProt P02768). The series is described as follows: Drug binding to human serum albumin immobilized on EMA, Corning LID.
For series [1], the system named is Lys-D-Ala-D-Ala. The series is described as follows: Vancomycin binding to immobilized Lys-D-Ala-D-Ala, SPR (Biacore 2000). The conditions noted are these: for Total Signal: 5 μM vancomycin; for Nonspecific Binding: 5 uM vancomycin + 500 μM DADA; for Kd: Scatchard analysis, vancomycin 10, 5, 2.5, 1.25 μM. How it is done:
(Vancomycin is an antibiotic that binds to the C-terminal D-Ala-D-Ala group of Gram-positive bacterial cell wall precursors and inhibits cell wall synthesis.) Experiments were performed on the Biacore 2000 SPR instrument using gold sensor chips modified with either EMA or poly(triethylene glycol-co-maleic anhydride) (“PEG-MA”); for comparison, experiments were also performed on Biacore's CM5 surface.
In general terms: SPR reads the build-up and loss of mass on a sensor chip optically.

Series [2] relates to Lys-D-Ala-D-Ala. The series is described as follows: Vancomycin competitive inhibition binding assay, SPR. How it is done:
(§1) To test the specificity of the interaction, a competitive binding assay was performed in which the surface was incubated with a fixed (5 μM) concentration of vancomycin in the presence of varying concentrations of the peptide Lys-D-Ala-D-Ala. […] Similar competitive inhibition experiments were performed on a Corning LID microplate coated with EMA (see FIG. 7).

Series [3] concerns Lys-D-Ala-D-Ala. The series is described as follows: Vancomycin competitive inhibition on EMA coated microplate, Corning LID. Format: binding. The conditions noted are these: in the presence of excess (250 uM) Lys-D-Ala-D-Ala. Here is the method: as §1
Series [4] deals with Lys-D-Ala-D-Ala. The conditions noted are these: measured in solution (ref 12); read-out: Kd reported in the literature; cited from earlier work.
The conditions of series [5]: isoelectric point, listed property; cited from earlier work.
A short description of series [6]: Streptavidin binding to immobilized biotin on EMA coated microplate, Corning LID. Particulars: streptavidin 100 nM in PBS, six wells. Here is the method:
The performance of EMA in a small molecule/protein binding assay was tested using a biotin/streptavidin model system and Corning LID detection. Biotin was immobilized in rows A-G of a Corning LID microplate by incubating each well with 75 uL of a 10 uM solution of biotin-peo-amine in borate buffer (150 mM, pH 9) for 30 minutes; row H was reacted with ethanolamine (200 mM in borate buffer, pH 9) to serve as a negative control. The plate was docked in the LID instrument and the binding of streptavidin (100 nM in phosphate buffered saline (PBS)) was monitored as a function of time as shown in FIG. 4A.

The nature of series [7]: Streptavidin/BSA binding to biotin immobilized on MAMVE and SMA, Biacore SPR. Particulars: streptavidin 1 μM; biotin-groups immobilized on MAMVE; BSA as control. From the text: Biacore SPR detection was used for these experiments in which biotin was immobilized on the surfaces by injecting solutions of 5-(biotinamido)pentylamine over each surface. […] Non-specific binding of proteins to surfaces such as those presenting hydrophobic aromatic groups is well documented; the inertness of surfaces presenting —OCH3 groups to non-specific adsorption has also been observed (13).

As usually defined, the Kd is the concentration at which binding is half-saturated.

Values joined by “and” are separate entries in the source; they are usually repeats but may differ in a detail not shown here. Equal entries are not always repeated. Where two headings read alike, the source gives them in different places.

streptavidin, sequence (P22629 25-183, species assumed): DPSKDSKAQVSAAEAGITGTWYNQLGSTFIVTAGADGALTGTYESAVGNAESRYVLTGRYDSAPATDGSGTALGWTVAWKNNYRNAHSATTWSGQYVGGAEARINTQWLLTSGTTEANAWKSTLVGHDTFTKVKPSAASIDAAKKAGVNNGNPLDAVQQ
human serum albumin, sequence (P02768 25-609): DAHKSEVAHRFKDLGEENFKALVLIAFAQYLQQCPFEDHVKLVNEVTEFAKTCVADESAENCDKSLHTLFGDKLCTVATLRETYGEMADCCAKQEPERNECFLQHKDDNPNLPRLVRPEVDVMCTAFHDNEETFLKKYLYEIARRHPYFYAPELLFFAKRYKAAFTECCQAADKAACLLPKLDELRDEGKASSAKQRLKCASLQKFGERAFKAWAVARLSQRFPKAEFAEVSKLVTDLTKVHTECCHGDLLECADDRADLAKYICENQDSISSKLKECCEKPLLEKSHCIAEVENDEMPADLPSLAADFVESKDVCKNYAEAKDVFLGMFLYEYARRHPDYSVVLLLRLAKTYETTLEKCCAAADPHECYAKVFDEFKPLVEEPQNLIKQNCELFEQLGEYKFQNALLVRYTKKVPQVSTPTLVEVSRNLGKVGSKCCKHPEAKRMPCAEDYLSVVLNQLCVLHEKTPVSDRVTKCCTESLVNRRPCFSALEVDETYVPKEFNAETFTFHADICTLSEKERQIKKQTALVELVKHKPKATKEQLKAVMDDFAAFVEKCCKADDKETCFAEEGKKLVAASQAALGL
Experimental for human serum albumin: HSA was immobilized on the sensor surface by incubating the wells with a solution of 60 ug/mL of the protein in an acetate buffer (20 mM, pH 5.5) for 15 minutes. As negative controls, additional wells were blocked with ethanolamine. After thorough washing with PBS buffer and water, residual reactive groups were blocked by incubating the wells for 10 minutes with ethanolamine (200 mM, pH 9.2).

For `O=C(O)CCCC[C@@H]1SC[C@@H]2NC(=O)N[C@@H]21` [biotin], the “response for binding to immobilized streptavidin” value at streptavidin (EMA coated LID microplate, Fl-biotin 100 nM in PBS, relative to negative control well) is recorded as ~5 pm. Further, the signal-to-noise ratio at streptavidin is reported as ~50.

Turning to `C[C@H]1O[C@@H](O[C@H]2[C@@H](O)C[C@H](O[C@H]3[C@@H](O)C[C@H](O[C@H]4CC[C@@]5(C)[C@H](CC[C@@H]6[C@@H]5CC[C@]5(C)[C@@H](C7=CC(=O)OC7)CC[C@]65O)C4)O[C@@H]3C)O[C@@H]2C)C[C@H](O)[C@@H]1O` [digitoxin], on human serum albumin, the “lowest concentration successfully detected” value amounted to 6 µM.

Consider `O=C(CCCCCNC(=O)CCCC[C@@H]1SC[C@@H]2NC(=O)N[C@@H]21)NCCCCCNC(=S)Nc1ccc2c(c1)C(=O)OC21c2ccc(O)cc2Oc2cc(O)ccc21` [fluorescein-biotin], for which, on streptavidin, the signal-to-noise ratio is > 200.

For the compound `CN[C@H](CC(C)C)C(=O)N[C@H]1C(=O)N[C@@H](CC(N)=O)C(=O)N[C@H]2C(=O)N[C@H]3C(=O)N[C@H](C(=O)N[C@H](C(=O)O)c4cc(O)cc(O)c4-c4cc3ccc4O)[C@H](O)c3ccc(c(Cl)c3)Oc3cc2cc(c3O[C@@H]2O[C@H](CO)[C@@H](O)[C@H](O)[C@H]2O[C@H]2C[C@](C)(N)[C@H](O)[C@H](C)O2)Oc2ccc(cc2Cl)[C@H]1O` [vancomycin], the “Total Signal” value was 1251 RU in the series with Lys-D-Ala-D-Ala [1] (CM5 surface), 2538 RU in the series on Lys-D-Ala-D-Ala [1] (EMA surface) and 2006 RU in the series with Lys-D-Ala-D-Ala [1] (PEG-MA surface). In addition, the results for the “Nonspecific Binding” value in the series with Lys-D-Ala-D-Ala [1] (CM5 surface), in the series on Lys-D-Ala-D-Ala [1] (EMA surface) and in the series with Lys-D-Ala-D-Ala [1] (PEG-MA surface) were 3 RU, 290 RU and 128 RU, respectively. The dissociation constant Kd at Lys-D-Ala-D-Ala [1] (CM5 surface) was 280 nM and 270 nM; on Lys-D-Ala-D-Ala [1] (EMA surface), 340 nM; at Lys-D-Ala-D-Ala [1] (PEG-MA surface) it was 1300 nM; at Lys-D-Ala-D-Ala [4], ~1000 nM. In addition, in the series with Lys-D-Ala-D-Ala [2] (PEG-MA relative to EMA), the “amount of nonspecific binding, lower on PEG-MA relative to EMA” value was ~2 ×. The binding specificity with Lys-D-Ala-D-Ala [2] (both maleic anhydride copolymer surfaces tested (EMA, PEG-MA), 5 μM vancomycin) is > 90%. Besides, the “reduction of vancomycin binding signal” value in the series on Lys-D-Ala-D-Ala [3] was found to be 83%.

In the case of “Lysozyme: protein immobilized on EMA, 14 kDa”, the pI in series [5] is on record as 9.5.

In series [6], “streptavidin: protein binding biotin; 60 kDa” registered an average response of 465 pm. For the same compound, the specificity of binding result in series [7] is recorded as “specific”. The pI in series [5] was 5.
